# Assay results as given in patent US12265082B2, “Detecting microbial infection in wounds” (SYNOVO GMBH, priority 2016, dated 2025).
# Residues, ends and D or L forms follow the SMILES beside them. *: point of attachment. X5 = 4‑(N-piperazino)phenyl‑bis(4-dimethylaminophenyl)carbenium, CN(C)c1ccc([C+](c2ccc(N(C)C)cc2)c2ccc(N3CCN(*)CC3)cc2)cc1; X9 = CN(C)c1ccc([C+](c2ccc(N(C)C)cc2)c2ccc(N3CCN(*)CC3)cc2)cc1
# Key:
# [1] = biological target: pancreatic porcine elastase (Sus scrofa, UniProt P00772); experiment: Enzyme hydrolysis of substrates by pancreatic porcine elastase, cleavage products by ion trap MS; conditions: mass peak at m/z=484
# Procedure: (§1) Appearance of the assay mixture was either a clear solution, a suspension or a gel, depending on the properties of the enzyme substrate. Incubation was performed at 37° C. After 3 and 20 h, 10 μL samples were taken and the enzyme was denatured by addition of 10 μL MeOH to each sample. After mixing and incubation at −20° C. for 20 min the samples were centrifuged at 13.000 rpm for 10 min. Each assay included a control without enzyme, containing 1 mg/mL to 5 mg/mL substrate and analysis was performed in the same way and in parallel to the enzyme-containing assays. The supernatant after MeOH precipitation was analyzed via ion trap MS, either [M+H]+ or [M−H]−, depending on the properties of the molecule and the expected cleavage products.
# [2] = biological target: T1, human elastase from leucocytes (Homo sapiens, UniProt P08246); experiment: Enzyme hydrolysis of substrates by human elastase from leucocytes, cleavage products by ion trap MS; conditions: mass peak at m/z=484
# T1 sequence (P08246 30-267): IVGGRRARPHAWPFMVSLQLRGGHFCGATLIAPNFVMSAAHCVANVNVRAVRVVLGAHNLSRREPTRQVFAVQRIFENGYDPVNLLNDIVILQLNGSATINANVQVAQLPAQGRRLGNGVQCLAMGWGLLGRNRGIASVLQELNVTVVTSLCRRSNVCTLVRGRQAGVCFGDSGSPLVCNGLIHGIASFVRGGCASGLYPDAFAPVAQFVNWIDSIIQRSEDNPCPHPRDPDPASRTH
# Procedure: as §1
# MPO = biological target: T2, MPO (Homo sapiens, UniProt P05164); experiment: Reaction of methoxy aniline derivative as substrate of MPO; assay type: biochemical
# T2 sequence (P05164 49-745): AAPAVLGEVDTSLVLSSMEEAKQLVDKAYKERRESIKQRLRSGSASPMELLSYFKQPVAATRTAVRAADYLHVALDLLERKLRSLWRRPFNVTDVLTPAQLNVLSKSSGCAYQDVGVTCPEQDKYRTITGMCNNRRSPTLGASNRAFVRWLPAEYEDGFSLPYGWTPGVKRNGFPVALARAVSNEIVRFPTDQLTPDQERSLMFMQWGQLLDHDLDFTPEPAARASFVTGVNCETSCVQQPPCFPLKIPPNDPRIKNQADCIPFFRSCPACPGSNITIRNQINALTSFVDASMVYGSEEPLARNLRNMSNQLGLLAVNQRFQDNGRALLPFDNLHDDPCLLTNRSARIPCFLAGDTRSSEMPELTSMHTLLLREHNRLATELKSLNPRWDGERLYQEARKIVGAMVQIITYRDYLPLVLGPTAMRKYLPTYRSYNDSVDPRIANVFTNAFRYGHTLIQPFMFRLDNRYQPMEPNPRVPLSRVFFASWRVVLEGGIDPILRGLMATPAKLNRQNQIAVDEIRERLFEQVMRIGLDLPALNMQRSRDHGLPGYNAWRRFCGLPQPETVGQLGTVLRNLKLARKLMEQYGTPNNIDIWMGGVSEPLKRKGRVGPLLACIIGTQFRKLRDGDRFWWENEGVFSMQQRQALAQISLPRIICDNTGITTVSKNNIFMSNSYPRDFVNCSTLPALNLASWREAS
# Excerpt: The ideal ratio by mass is circa 2:8 aniline: product of example 10. The most efficient reaction occurs when the divalent anion is sulphuric acid, however, disulfonic substituted aromatic systems and phosphoric acid can also be used with diminished rate. HC1 provides only limited reaction. On reaction, one of the products of MPO oxidation appears to be the dimer of the two aniline components (see FIG. 13).
# elastase = experiment: Treatment with elastase, released dye fragment found by MS-analysis (synthesis examples); assay type: biochemical; conditions: elastase species not stated
# [3] = Color change of allyl sulfophthalein dyes with pH, base or ammonia; assay type: physicochemical
# pancreatic porcine elastase, sequence (P00772 27-266): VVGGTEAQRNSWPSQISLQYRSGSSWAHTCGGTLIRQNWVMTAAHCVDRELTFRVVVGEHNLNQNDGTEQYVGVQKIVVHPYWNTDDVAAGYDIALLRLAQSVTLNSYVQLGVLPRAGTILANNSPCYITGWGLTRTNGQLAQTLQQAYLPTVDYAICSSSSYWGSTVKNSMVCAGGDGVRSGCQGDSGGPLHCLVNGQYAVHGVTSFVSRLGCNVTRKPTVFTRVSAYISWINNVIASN
compound,measurement,setting,value
4-([4-{H-Ala-Ala-Pro-Val-Ala}amido N-piperazino]phenyl)-bis-(4-dimethyl-aminophenyl)-carbenium ion polyacrylamide (H-AAPVA-X5; also: polyacrylamide) [Example 71e],release of A-CV on treatment with porcine elastase,[1],releases A-CV
same,release of A-CV on treatment with human elastase,[2],releases A-CV
"CCCCCCCCCCCCC(O)CNc1cc(OC)c(NC(=O)c2ccccc2)cc1OC (racemic) [Example 10, N-(1-[2-Hydroxy]Tetradecanyl) Fast Blue RR (N-4-(1,3-Dimethoxy-2-N-Benzoylamidophenyl)-N′-Rac-(2-Hydroxy-n-Tetradecyl)-Amine)]",reaction as substrate of MPO,MPO,can be a direct substrate of MPO
"CC(N)C(=O)NC(C)C(=O)N1CCCC1C(=O)NC(C(=O)NC(C)C(=O)N1CCN(c2ccc([C+](c3ccc(N(C)C)cc3)c3ccc(N(C)C)cc3)cc2)CC1)C(C)C (stereo not drawn) [Example 71, 4-([4-{H-Ala-Ala-Pro-Val-Ala}[SEQ ID NO: 28]amido N-piperazino]phenyl)-bis-(4-dimethyl-aminophenyl)-carbenium ion] (H-AAPVA-X9; configuration not given here)",release of dye fragment on treatment with elastase,elastase,released A-CV
"C=CCOc1ccc(C2(c3ccc(O)c(Cl)c3)OS(=O)(=O)c3ccccc32)cc1Cl (centres unmarked) [Example 95, O-Allyl Chlorophenol Red]",color change with pH / base / ammonia,[3],no longer changed color with pH
Bis-(4-dimethylaminophenyl)-(4-[4-N-{6-N-valinoyl)aminohexanoyl}]piperazinophenyl)-carbenium ion [Example 72],release of dye fragment on treatment with elastase,elastase,releases no Ahx-CV
C-Allyl Bromophenol Red [Example 97],color change with pH / base / ammonia,[3],color changed with ammonia to violet
C-Allyl Chlorophenol Red [Example 96],color change with pH / base / ammonia,[3],changed color when treated with base to deep violet
CMC 9M31F-AAPF-RBB [Example 55],release of dye fragment on treatment with elastase,elastase,release of the dye
CMC 9M31F-AAPFA-RBB [Example 54],release of dye fragment on treatment with elastase,elastase,release of the dye
Fmoc-AAPF-aminoethyl-(Remazol Black B)-(N′-acetyl)-ethylamide [Example 53],release of dye fragment on treatment with elastase,elastase,yield the mono-acetylated-Remazol Black B-amino derivative
